Results published in PMC12373846, “Hemoglobin as a pseudoperoxidase and drug target for oxidative stress-related diseases” (Signal Transduction and Targeted Therapy, 2025).
Where two headings read alike, the source gives them in different places.

Assays:
PCTK1 = biological target: T1, PCTK1 (Homo sapiens, UniProt Q00536); assay: KINOMEscan; format: binding; conditions: 10000 nM; read-out: Percent Control
T1 construct: purchased DiscoverX KINOMEscan scanEDGE; Eurofins Cerep SafetyScreen87
Protocol: (§1) The possibility of KDS12025 on kinase off-target, the KINOMEscan panel of scanEDGE assay was conducted in DiscoverX (CA, USA) using a site-directed competition binding with the test compounds. The assay results are given in Supplementary Table 4 and experimental information is available on the DiscoverX web page (www.discoverx.com). Moreover, the Delta SafetyScreen87 panel assay was conducted in Eurofins Discovery (Cerep, France). The assay results are given in Supplementary Table 5 and experimental information is available on the DiscoverX web page (https://www.eurofinsdiscoveryservices.com).

[1] = biological target: T2, ABL1(T315I)-phosphorylated (Homo sapiens, UniProt P00519, T315I); assay: KINOMEscan; format: binding; conditions: 10000 nM; read-out: Percent Control
T2 construct: purchased DiscoverX KINOMEscan scanEDGE; Eurofins Cerep SafetyScreen87
Protocol: as §1

SOD1^G93A mice = assay: Immunohistochemistry of ventral spinal cord, SOD1^G93A mice; format: in vivo, mouse; conditions: SOD1+KDS
Protocol: SOD1^G93A mice (B6SJL-Tg(SOD1*G93A)1Gur/J) were purchased from Jackson Laboratory (strain number 002726) and used in the ALS mouse model. The mice were divided into four groups: Control, SOD1, and KDS12025 (1 and 10 mg/kg/day). Starting at 10 weeks of age, KDS12025 was administered via ad libitum drinking water at doses of 1 mg/kg/day and 10 mg/kg/day. The control and SOD1 groups received standard drinking water. Motor function was evaluated weekly via the rotarod performance test, and the ratio of running time was normalized to that of littermate controls to assess motor coordination and endurance over time. Survival of the mice was monitored for up to 24 weeks, and median survival times were calculated for each group.
The mice were deeply anesthetized with 2% isoflurane and positioned on the operating table. […] A series of fluorescence images were obtained with an LSM900 (Zeiss, Germany) confocal microscope or Lattice SIM Elyra 7 (Zeiss, Germany). […] This analysis quantified the intersections of GFAP-labeled processes within each circle, calculating the ramification index and ending radius, enabling the evaluation of astrocytic hypertrophy and morphological changes, as previously described.[78] In the focal GiD mouse model, NeuN-positive CA1 pyramidal neurons were quantified within a 50 × 50 μm^2 region via ImageJ to determine the number of CA1 pyramidal neurons.

mice = assay: Laser speckle contrast imaging of cerebral perfusion; format: in vivo, mouse
Protocol: To assess cerebral perfusion, mice were anesthetized with isoflurane (2-3% in 100% O2, maintained at 1.0%) and placed on a heating pad to maintain body temperature. Following scalp incision, the skull surface was exposed without thinning or craniotomy. LSCI was performed using a laser speckle imaging system (RWD Life Science), acquiring frames at 30 Hz. KDS12025 (0.1, 1, or 10 mg/kg/day) or saline was administered via retro-orbital injection immediately prior to imaging. Cerebral blood perfusion and vessel diameter (pipe diameter) were quantified using RWD’s proprietary LSCI analysis software. All imaging was conducted under identical illumination and acquisition parameters.

[2] = PK-BBB brain-plasma permeability; format: in vivo, mouse; conditions: 5 mg/kg IV
Protocol: For the brain-plasma permeability assessment, brain tissues from male ICR mice (n = 3 per time point) were collected following euthanasia by CO2 inhalation. Brains were excised, rinsed with saline, blotted dry, and transferred into pre-labeled Eppendorf tubes (one brain per tube). Samples were snap-frozen on dry ice and stored at -80 °C until analysis. Brain samples were processed using the same LC-MS/MS method. The brain-to-plasma concentration ratio was calculated as the concentration of drug in brain tissue divided by the corresponding plasma concentration.

T1 sequence (Q00536 whole entry): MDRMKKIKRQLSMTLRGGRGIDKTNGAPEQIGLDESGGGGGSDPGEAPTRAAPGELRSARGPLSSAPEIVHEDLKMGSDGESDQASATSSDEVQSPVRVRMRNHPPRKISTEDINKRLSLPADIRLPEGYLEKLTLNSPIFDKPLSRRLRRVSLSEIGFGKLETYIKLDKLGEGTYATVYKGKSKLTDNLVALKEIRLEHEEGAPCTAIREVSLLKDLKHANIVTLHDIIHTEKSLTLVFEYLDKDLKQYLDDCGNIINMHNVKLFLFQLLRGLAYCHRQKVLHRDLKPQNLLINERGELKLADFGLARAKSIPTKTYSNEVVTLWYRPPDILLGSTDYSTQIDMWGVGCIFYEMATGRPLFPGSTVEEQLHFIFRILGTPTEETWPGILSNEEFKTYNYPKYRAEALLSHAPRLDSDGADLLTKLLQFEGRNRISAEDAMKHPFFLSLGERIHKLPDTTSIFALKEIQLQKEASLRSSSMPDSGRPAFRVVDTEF

SMILES: CNc1ccc(NCCc2ccccc2OC)cc1.Cl [KDS12025, N^1-(2-methoxyphenethyl)-N^4-methylbenzene-1,4-diamine hydrochloride salt]
- remaining binding at 10 µM (PCTK1): 94%
- remaining binding at 10 µM [1]: 84%
- Hbβ in GFAP-positive astrocytes, ventral spinal cord (SOD1^G93A mice; Fig. S15b): Control (2194±76.5, n=25), SOD1 (1209±54.8, n=31), SOD1+KDS (2557±108.6, n=37) One-way ANOVA with Tukey's multiple comparisons test, F(2,90) = 65.01, p < 0.001 Control vs. SOD1, p < 0.001; Control vs. SOD1+KDS, p = 0.02; SOD1 vs. SOD1+KDS, p < 0.001
- Hbβ in NeuN-positive neurons, ventral spinal cord (SOD1^G93A mice; Fig. S15d): Control (1961±96.1, n=22), SOD1 (1183±89.9, n=19), SOD1+KDS (2326±85.3, n=17) One-way ANOVA with Tukey's multiple comparisons test, F(2,55) = 38.14, p < 0.001 Control vs. SOD1, p < 0.001; Control vs. SOD1+KDS, p = 0.02; SOD1 vs. SOD1+KDS, p < 0.001
- overall cerebral perfusion (LSCI, Fig. S8f) (mice; 0.1 mpk retro-orbital): 1169±10.7
- vessel diameter (pipe diameter, Fig. S8g) (mice; 0.1 mpk retro-orbital): 193±3.8
- overall cerebral perfusion (LSCI, Fig. S8f) (mice; 1 mpk retro-orbital): 1205±10.4
- vessel diameter (pipe diameter, Fig. S8g) (mice; 1 mpk retro-orbital): 200±2.3
- overall cerebral perfusion (LSCI, Fig. S8f) (mice; 10 mpk retro-orbital): 1190±7.4
- vessel diameter (pipe diameter, Fig. S8g) (mice; 10 mpk retro-orbital): 203±3.9
- Brain concentration ([2]; 2 h): BLQ
- Brain concentration ([2]; 4 h): BLQ
- Brain concentration ([2]; 8 h): BLQ
- Plasma concentration ([2]; 8 h): BLQ
- concentration at 0.083 h ([2]; male, ICR, mouse, brain, 0.083 h, read-out: Brain concentration): 1680 ± 34.2 ng/g
- Kp at 0.083 h ([2]; male, ICR, mouse, brain, 0.083 h, read-out: Brain to plasma ratio (B/P)): 0.9 ± 0.17
- concentration at 0.25 h ([2]; male, ICR, mouse, brain, 0.25 h, read-out: Brain concentration): 589 ± 44.1 ng/g
- Kp at 0.25 h ([2]; male, ICR, mouse, brain, 0.25 h, read-out: Brain to plasma ratio (B/P)): 0.76 ± 0.04
- concentration at 0.5 h ([2]; male, ICR, mouse, brain, 0.5 h, read-out: Brain concentration): 234 ± 31.7 ng/g
- Kp at 0.5 h ([2]; male, ICR, mouse, brain, 0.5 h, read-out: Brain to plasma ratio (B/P)): 0.84 ± 0.19
- concentration at 1 h ([2]; male, ICR, mouse, brain, 1 h, read-out: Brain concentration): 65.6 ± 12.3 ng/g
- Kp at 1 h ([2]; male, ICR, mouse, brain, 1 h, read-out: Brain to plasma ratio (B/P)): 0.79 ± 0.25
- half-life ([2]; male, ICR, mouse, brain, mice, read-out: brain t1/2 (PK-BBB) (converted)): 14.4 min
- concentration at 0.083 h ([2]; male, ICR, mouse, plasma, 0.083 h, read-out: Plasma concentration): 1910 ± 323 ng/mL
- concentration at 0.25 h ([2]; male, ICR, mouse, plasma, 0.25 h, read-out: Plasma concentration): 782 ± 104 ng/mL
- concentration at 0.5 h ([2]; male, ICR, mouse, plasma, 0.5 h, read-out: Plasma concentration): 284 ± 45.5 ng/mL
- concentration at 1 h ([2]; male, ICR, mouse, plasma, 1 h, read-out: Plasma concentration): 84.7 ± 10.3 ng/mL
- concentration at 2 h ([2]; male, ICR, mouse, plasma, 2 h): 15.5 ± 7.09 ng/mL
- concentration at 4 h ([2]; male, ICR, mouse, plasma, 4 h): 2.99 ± 0.52 ng/mL
- AUC ([2]; male, ICR, mouse, plasma, mice, read-out: plasma AUCall (PK-BBB)): 721 ng·h/mL
- clearance ([2]; male, ICR, mouse, plasma, mice, read-out: plasma Cl (PK-BBB) (converted)): 115 mL/min/kg
- half-life ([2]; male, ICR, mouse, plasma, mice, read-out: plasma t1/2 (PK-BBB) (converted)): 39 min
- brain AUCall (PK-BBB) ([2]; mice): 437.01 ng·h/mL
- brain Cmax (PK-BBB) ([2]; mice): 1680.64 ng/mL
